Source: PubChem BioAssay AID2060886 (Molecular Pharmacology Branch, DTP, NCI, 2025)
pIC50: −log10 of the molar value. “And” between values parts separate entries of the source, which are not always exact repeats. Equal entries are not always repeated.

System: 653999-131-R-J2-PDC complex spheroids, growth inhibition
Test: Anticancer human tumor 653999-131-R-J2-PDC patient-derived lung adenocarcinoma cell line growth inhibition [RAS]
Details: for viability, T/C: stronger effect = lower value
Procedure, shortened: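 Multi-cell-type spheroids: tumor cells plus HUVEC endothelial cells and mesenchymal stem cells. RAS-pathway inhibitors were combined with targeted agents, each dosed in half-log steps down from clinical Cmax, or from 10 microM when Cmax was unknown.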

[1] = curve of first compound, second compound 0.000949 µM
[2] = curve of first compound, second compound 0.003 µM
[3] = curve of first compound, second compound 0.00949 µM
[4] = curve of first compound, second compound 0.03 µM
[5] = curve of first compound, second compound 0.0949 µM
[6] = curve of first compound, second compound 0.3 µM
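Note: spheroids exposed to the agents for seven days before the readout.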

In the case of CCc1c2c(nc3ccc(O)cc13)-c1cc3c(c(=O)n1C2)COC(=O)[C@]3(O)CC + CCn1c(-c2cccnc2C(C)OC)c2c3cc(ccc31)N1CCOC(CC(NC(=O)C(C(C)C)N(C)C(=O)C3(F)CCN(C(=O)C#CC(C)(C)N(C)C)CC3)C(=O)N3CCCC(N3)C(=O)OCC(C)(C)C2)C1, the pIC50 [1] was 7.88, the pIC50 [2] was 7.90 and the pIC50 [3] was 7.83. It also gave a pIC50 [4] of 7.97, a pIC50 [5] of 8.11 and a pIC50 [6] of 8.25. The viability, T/C (second compound 0.000949 µM, first compound 0.000949 µM) was 92.6%, the viability, T/C (second compound 0.000949 µM, first compound 0.003 µM) was 84.4% and the viability, T/C (second compound 0.000949 µM, first compound 0.00949 µM) was 52%. For the same molecule, the viability, T/C (second compound 0.000949 µM, first compound 0.03 µM) was 35.9%, the viability, T/C (second compound 0.000949 µM, first compound 0.0949 µM) was 30% and the viability, T/C (second compound 0.000949 µM, first compound 0.3 µM) was 16.7%. For the same molecule, the viability, T/C (second compound 0.003 µM, first compound 0.000949 µM) was 86%, the viability, T/C (second compound 0.003 µM, first compound 0.003 µM) was 77.3% and the viability, T/C (second compound 0.003 µM, first compound 0.00949 µM) was 52.8%. For the same molecule, the viability, T/C (second compound 0.003 µM, first compound 0.03 µM) was 35.9%, the viability, T/C (second compound 0.003 µM, first compound 0.0949 µM) was 28% and the viability, T/C (second compound 0.003 µM, first compound 0.3 µM) was 20.4%. It also gave a viability, T/C (second compound 0.00949 µM, first compound 0.000949 µM) of 104%, a viability, T/C (second compound 0.00949 µM, first compound 0.003 µM) of 84.1% and a viability, T/C (second compound 0.00949 µM, first compound 0.00949 µM) of 55.2%. For the same molecule, the viability, T/C (second compound 0.00949 µM, first compound 0.03 µM) was 37.8%, the viability, T/C (second compound 0.00949 µM, first compound 0.0949 µM) was 28.7% and the viability, T/C (second compound 0.00949 µM, first compound 0.3 µM) was 17.3%. It also gave a viability, T/C (second compound 0.03 µM, first compound 0.000949 µM) of 91.8%, a viability, T/C (second compound 0.03 µM, first compound 0.003 µM) of 75.7% and a viability, T/C (second compound 0.03 µM, first compound 0.00949 µM) of 51.9%. For the same molecule, the viability, T/C (second compound 0.03 µM, first compound 0.03 µM) was 31.4%, the viability, T/C (second compound 0.03 µM, first compound 0.0949 µM) was 22.3% and the viability, T/C (second compound 0.03 µM, first compound 0.3 µM) was 16.3%. For the same molecule, the viability, T/C (second compound 0.0949 µM, first compound 0.000949 µM) was 90.6%, the viability, T/C (second compound 0.0949 µM, first compound 0.003 µM) was 66.4% and the viability, T/C (second compound 0.0949 µM, first compound 0.00949 µM) was 47.5%. For the same molecule, the viability, T/C (second compound 0.0949 µM, first compound 0.03 µM) was 29.9%, the viability, T/C (second compound 0.0949 µM, first compound 0.0949 µM) was 19.3% and the viability, T/C (second compound 0.0949 µM, first compound 0.3 µM) was 12.4%. It also gave a viability, T/C (second compound 0.3 µM, first compound 0.000949 µM) of 81%, a viability, T/C (second compound 0.3 µM, first compound 0.003 µM) of 57.8% and a viability, T/C (second compound 0.3 µM, first compound 0.00949 µM) of 44.9%. For the same molecule, the viability, T/C (second compound 0.3 µM, first compound 0.03 µM) was 26.3%, the viability, T/C (second compound 0.3 µM, first compound 0.0949 µM) was 17.6% and the viability, T/C (second compound 0.3 µM, first compound 0.3 µM) was 11.5%.

CC1(O)CCCC1n1c(=O)c(C(F)F)cc2cnc(NC3CCN(S(C)(=O)=O)CC3)nc21 (stereo unspecified) + CCn1c(-c2cc(N3CCN(C)CC3)cnc2C(C)OC)c2c3cc(ccc31)-c1csc(n1)CC(NC(=O)C1CC1C)C(=O)N1CCCC(N1)C(=O)OCC(C)(C)C2 was tested, and the pIC50 [1] was 5.08, the pIC50 [2] was 7.24 and the pIC50 [3] was > 7.50. For the same molecule, the pIC50 [4] was > 7.50, the pIC50 [5] was > 7.50 and the pIC50 [6] was > 7.50. The viability, T/C (second compound 0.000949 µM, first compound 0.0316 µM) was 67.8%, the viability, T/C (second compound 0.000949 µM, first compound 0.1 µM) was 48.4% and the viability, T/C (second compound 0.000949 µM, first compound 0.316 µM) was 57.4%. For the same molecule, the viability, T/C (second compound 0.000949 µM, first compound 1 µM) was 49%, the viability, T/C (second compound 0.000949 µM, first compound 3.16 µM) was 73% and the viability, T/C (second compound 0.000949 µM, first compound 10 µM) was 37.7%. The viability, T/C (second compound 0.003 µM, first compound 0.0316 µM) was 52.4%, the viability, T/C (second compound 0.003 µM, first compound 0.1 µM) was 49.5% and the viability, T/C (second compound 0.003 µM, first compound 0.316 µM) was 40.1%. For the same molecule, the viability, T/C (second compound 0.003 µM, first compound 1 µM) was 49.9%, the viability, T/C (second compound 0.003 µM, first compound 3.16 µM) was 47.2% and the viability, T/C (second compound 0.003 µM, first compound 10 µM) was 38.5%. The viability, T/C (second compound 0.00949 µM, first compound 0.0316 µM) was 43%, the viability, T/C (second compound 0.00949 µM, first compound 0.1 µM) was 28.5% and the viability, T/C (second compound 0.00949 µM, first compound 0.316 µM) was 28.5%. For the same molecule, the viability, T/C (second compound 0.00949 µM, first compound 1 µM) was 28.1%, the viability, T/C (second compound 0.00949 µM, first compound 3.16 µM) was 39% and the viability, T/C (second compound 0.00949 µM, first compound 10 µM) was 29.1%. The viability, T/C (second compound 0.03 µM, first compound 0.0316 µM) was 36.6%, the viability, T/C (second compound 0.03 µM, first compound 0.1 µM) was 23.9% and the viability, T/C (second compound 0.03 µM, first compound 0.316 µM) was 25.8%. The viability, T/C (second compound 0.03 µM, first compound 1 µM) was 24.9%, the viability, T/C (second compound 0.03 µM, first compound 3.16 µM) was 30.7% and the viability, T/C (second compound 0.03 µM, first compound 10 µM) was 20%. For the same molecule, the viability, T/C (second compound 0.0949 µM, first compound 0.0316 µM) was 27.2%, the viability, T/C (second compound 0.0949 µM, first compound 0.1 µM) was 20.3% and the viability, T/C (second compound 0.0949 µM, first compound 0.316 µM) was 18.8%. For the same molecule, the viability, T/C (second compound 0.0949 µM, first compound 1 µM) was 19.4%, the viability, T/C (second compound 0.0949 µM, first compound 3.16 µM) was 26.7% and the viability, T/C (second compound 0.0949 µM, first compound 10 µM) was 24.7%. The viability, T/C (second compound 0.3 µM, first compound 0.0316 µM) was 19.2%, the viability, T/C (second compound 0.3 µM, first compound 0.1 µM) was 18.5% and the viability, T/C (second compound 0.3 µM, first compound 0.316 µM) was 25.2%. It also gave a viability, T/C (second compound 0.3 µM, first compound 1 µM) of 20.8%, a viability, T/C (second compound 0.3 µM, first compound 3.16 µM) of 20.3% and a viability, T/C (second compound 0.3 µM, first compound 10 µM) of 21%.

C[C@@H](NC(=O)c1ncnc(N)c1Cl)c1ncc(C(=O)Nc2cc(C(F)(F)F)c(Cl)cn2)s1 was tested, and the viability, T/C (compound 0.0316 µM) was 110% and 94.1% and 103%, the viability, T/C (compound 0.1 µM) was 99.2% and 120% and 108% and the viability, T/C (compound 0.316 µM) was 93.9% and 101% and 114%. The viability, T/C (compound 1 µM) was 91.1% and 102% and 105%, the viability, T/C (compound 3.16 µM) was 98.3% and 99.8% and 102% and the viability, T/C (compound 10 µM) was 68.6% and 79% and 75.5%. The pIC50 (curve of compound) was < 5.00.
